Reference: patent KR20100108793A, “애기뿔소똥구리로부터 분리된 항진균 활성을 가지는 코프리신 펩타이드 및 그의 용도” (대한민국(농촌진흥청장), priority 2009, dated 2010)
≈ marks a conversion by molar mass, not a printed value. Where no end group is shown, it is not given here.

What was measured:
Assay type in all cases: cell-based
[1] = system: Candida albicans; assay: Mechanism of antifungal activity (time-kill, CFU count; cidal or static); details: plated over time on YPD agar, 28℃, 24 h, CFU count (Fig. 2)
[2] = system: Malassezia furfur; assay: Antifungal MIC by MTT assay; details: 28℃, 24 h, MTT readout at 570 nm
[3] = system: Trichophyton rubrum; assay: Antifungal MIC by MTT assay; details: 28℃, 24 h, MTT readout at 570 nm
[4] = system: Candida albicans (ATCC 90028); assay: Antifungal MIC by MTT assay; details: strain ATCC 90028; 28℃, 24 h, MTT readout at 570 nm
[5] = system: Candida albicans (TIMM 1768); assay: Antifungal MIC by MTT assay; details: strain TIMM 1768; 28℃, 24 h, MTT readout at 570 nm
[6] = system: Candida parapsilosis; assay: Antifungal MIC by MTT assay; details: 28℃, 24 h, MTT readout at 570 nm
[7] = system: Aspergillus fumigatus; assay: Antifungal MIC by MTT assay; details: 28℃, 24 h, MTT readout at 570 nm
[8] = system: Trichosporon beigelii; assay: Antifungal MIC by MTT assay; details: 28℃, 24 h, MTT readout at 570 nm
[9] = system: Human erythrocytes; assay: Cytotoxicity to human erythrocytes (hemolysis); details: for % human erythrocyte hemolysis: 37℃, 90 min, 0.1% Triton X-100 = 100 %; for Cytotoxicity to human erythrocytes (in words): summary of Table 3
[10] = system: Aspergillus parasticus; assay: Antifungal MIC by MTT assay; details: 28℃, 24 h, MTT readout at 570 nm
[11] = system: Aspergillus flavus; assay: Antifungal MIC by MTT assay; details: 28℃, 24 h, MTT readout at 570 nm
[12] = system: Candida albicans; assay: Activity on dimorphism (FBS-induced hyphae) of pathogenic fungus, microscopy; details: hyphae induced with 20% FBS; 37℃, 24 h; microscopy (Fig. 1)

In the case of `CC[C@H](C)[C@H](NC(=O)CN)C(=O)NCC(=O)N[C@@H](C)C(=O)N[C@H](C(=O)N[C@@H](CC(C)C)C(=O)N[C@@H](CCCCN)C(=O)N[C@H](C(=O)N[C@@H](CC(C)C)C(=O)N[C@H](C(=O)N[C@H](C(=O)NCC(=O)N[C@@H](CC(C)C)C(=O)N1CCC[C@H]1C(=O)N[C@@H](C)C(=O)N[C@@H](CC(C)C)C(=O)N[C@H](C(=O)N[C@@H](CO)C(=O)N[C@@H](Cc1c[nH]c2ccccc12)C(=O)N[C@H](C(=O)N[C@@H](CCCCN)C(=O)N[C@@H](CCCNC(=N)N)C(=O)N[C@@H](CCCCN)C(=O)N[C@@H](CCCNC(=N)N)C(=O)N[C@@H](CCC(N)=O)C(=O)N[C@@H](CCC(N)=O)C(N)=O)[C@@H](C)CC)[C@@H](C)CC)[C@@H](C)O)[C@@H](C)O)C(C)C)C(C)C` [멜리틴, reference compound], the “Mode of antifungal action, cidal or static (in words)” value [1] is reported as “효과적으로 사멸(cidal)”, the MIC [2] is reported as 1.25 µM (≈ 3.56 µg/mL) and the MIC [3] is reported as 5 µM (≈ 14.2 µg/mL). The MIC [4] was 5 µM (≈ 14.2 µg/mL), the MIC [5] was 2.5 µM (≈ 7.12 µg/mL) and the MIC [6] was 5 µM (≈ 14.2 µg/mL). For the same compound, the MIC [7] was 2.5 µM (≈ 7.12 µg/mL), the MIC [8] was 2.5 µM (≈ 7.12 µg/mL) and the “% human erythrocyte hemolysis” value ([9]; peptide 3.13 μM) was 98%. The “% human erythrocyte hemolysis” value ([9]; peptide 6.25 μM) was 98%, the “% human erythrocyte hemolysis” value ([9]; peptide 12.5 μM) was 100% and the “% human erythrocyte hemolysis” value ([9]; peptide 25 μM) was 100%. The “% human erythrocyte hemolysis” value ([9]; peptide 50 μM) was 100%, the “% human erythrocyte hemolysis” value ([9]; peptide 100 μM) was 100% and the “Cytotoxicity to human erythrocytes (in words)” value [9] was “낮은 농도에서도 세포 독성이 매우 높게 나타냄”. For the same compound, the MIC [10] was 5 µM (≈ 14.2 µg/mL) and the MIC [11] was 2.5 µM (≈ 7.12 µg/mL).

For “VTCDVLSFEAKGIAVNHSACALHCIALRKKGGSCQNGVCVCRN (cysteines drawn unpaired) [코프리신]”, the “Mode of antifungal action, cidal or static (in words)” value [1] was “효과적으로 사멸(cidal)”, the MIC [2] was 5 µM and the “Effect on hyphae of Candida albicans (in words)” value [12] was “hyphae를 효과적으로 aggregation시킴”. It also gave an MIC [3] of 20 µM, an MIC [4] of 10 µM and an MIC [5] of 5 to 10 µM. It also gave an MIC [6] of 10 µM, an MIC [7] of 5 µM and an MIC [8] of 10 µM. The “% human erythrocyte hemolysis” value ([9]; peptide 3.13 μM) was 0%, the “% human erythrocyte hemolysis” value ([9]; peptide 6.25 μM) was 0% and the “% human erythrocyte hemolysis” value ([9]; peptide 12.5 μM) was 0%. For the same compound, the “% human erythrocyte hemolysis” value ([9]; peptide 25 μM) was 0%, the “% human erythrocyte hemolysis” value ([9]; peptide 50 μM) was 0% and the “% human erythrocyte hemolysis” value ([9]; peptide 100 μM) was 0%. The “Cytotoxicity to human erythrocytes (in words)” value [9] was “고농도에서도 전혀 세포 독성을 나타내지 않음”, the MIC [10] was 10 µM and the MIC [11] was 10 µM.
